Measurements taken from patent publication US20250129078A1, “ERBB2 INHIBITORS” (Cogent Biosciences, Inc., priority 2023, published 2025).
Counter-ions that a name gives are not always drawn. Like-named read-outs stand apart in the source and are kept apart here.

Experiments:
EGFR WT = EGFR WT (Homo sapiens (Human), UniProt P00533); test: ErbB enzyme assay (CisBio HTRF-KinEASE-TK), EGFR WT; type: biochemical; conditions: ATP at Km (25 μM), 1 h incubation
Outline: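 Tyrosine kinase HTRF, 1 h RT reaction → quench (Sa-XL665/TK-Ab-Cryptate) → 1 h RT → 655/620 ratio.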

ErbB2 V777L = ErbB2 V777L (Homo sapiens (Human), UniProt P04626, V777L); test: ErbB enzyme assay (CisBio HTRF-KinEASE-TK), ErbB2 V777L; type: biochemical
Sequence of ErbB2 V777L (P04626 23-1255 V777L): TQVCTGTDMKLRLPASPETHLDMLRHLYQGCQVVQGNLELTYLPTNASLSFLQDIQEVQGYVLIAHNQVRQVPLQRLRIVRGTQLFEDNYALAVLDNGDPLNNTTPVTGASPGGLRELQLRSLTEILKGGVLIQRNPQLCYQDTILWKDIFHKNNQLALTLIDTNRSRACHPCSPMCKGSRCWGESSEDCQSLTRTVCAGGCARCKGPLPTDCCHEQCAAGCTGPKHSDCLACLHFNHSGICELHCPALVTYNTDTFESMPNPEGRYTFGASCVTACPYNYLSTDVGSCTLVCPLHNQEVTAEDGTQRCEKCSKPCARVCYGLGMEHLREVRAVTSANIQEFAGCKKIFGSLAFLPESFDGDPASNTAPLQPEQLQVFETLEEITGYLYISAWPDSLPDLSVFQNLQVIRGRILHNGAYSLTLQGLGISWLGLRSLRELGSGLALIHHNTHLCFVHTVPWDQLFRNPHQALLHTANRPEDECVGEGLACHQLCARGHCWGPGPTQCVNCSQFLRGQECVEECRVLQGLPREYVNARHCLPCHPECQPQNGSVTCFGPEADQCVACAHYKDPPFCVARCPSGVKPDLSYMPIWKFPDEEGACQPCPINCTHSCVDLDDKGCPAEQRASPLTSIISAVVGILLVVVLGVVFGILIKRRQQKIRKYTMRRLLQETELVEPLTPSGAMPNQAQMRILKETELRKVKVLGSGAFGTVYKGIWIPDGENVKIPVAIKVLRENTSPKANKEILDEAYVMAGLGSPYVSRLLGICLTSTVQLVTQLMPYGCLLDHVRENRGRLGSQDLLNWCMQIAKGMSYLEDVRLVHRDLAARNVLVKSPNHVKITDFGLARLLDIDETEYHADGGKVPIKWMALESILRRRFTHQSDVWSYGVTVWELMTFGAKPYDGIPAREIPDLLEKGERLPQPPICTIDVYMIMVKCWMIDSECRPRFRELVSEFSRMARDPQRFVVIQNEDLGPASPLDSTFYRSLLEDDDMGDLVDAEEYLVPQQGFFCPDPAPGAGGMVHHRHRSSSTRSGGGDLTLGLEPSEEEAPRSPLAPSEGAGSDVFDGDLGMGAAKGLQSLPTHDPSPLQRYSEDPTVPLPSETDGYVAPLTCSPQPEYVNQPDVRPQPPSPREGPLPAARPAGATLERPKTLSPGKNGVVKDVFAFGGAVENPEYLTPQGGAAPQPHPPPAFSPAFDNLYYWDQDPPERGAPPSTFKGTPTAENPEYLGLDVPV
Outline: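 HTRF KinEASE-TK tyrosine-kinase read-out of substrate phosphorylation after a final 1 h at ambient temperature, from the 655/620 nm emission ratio.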

Sequence of EGFR WT (P00533 25-1210): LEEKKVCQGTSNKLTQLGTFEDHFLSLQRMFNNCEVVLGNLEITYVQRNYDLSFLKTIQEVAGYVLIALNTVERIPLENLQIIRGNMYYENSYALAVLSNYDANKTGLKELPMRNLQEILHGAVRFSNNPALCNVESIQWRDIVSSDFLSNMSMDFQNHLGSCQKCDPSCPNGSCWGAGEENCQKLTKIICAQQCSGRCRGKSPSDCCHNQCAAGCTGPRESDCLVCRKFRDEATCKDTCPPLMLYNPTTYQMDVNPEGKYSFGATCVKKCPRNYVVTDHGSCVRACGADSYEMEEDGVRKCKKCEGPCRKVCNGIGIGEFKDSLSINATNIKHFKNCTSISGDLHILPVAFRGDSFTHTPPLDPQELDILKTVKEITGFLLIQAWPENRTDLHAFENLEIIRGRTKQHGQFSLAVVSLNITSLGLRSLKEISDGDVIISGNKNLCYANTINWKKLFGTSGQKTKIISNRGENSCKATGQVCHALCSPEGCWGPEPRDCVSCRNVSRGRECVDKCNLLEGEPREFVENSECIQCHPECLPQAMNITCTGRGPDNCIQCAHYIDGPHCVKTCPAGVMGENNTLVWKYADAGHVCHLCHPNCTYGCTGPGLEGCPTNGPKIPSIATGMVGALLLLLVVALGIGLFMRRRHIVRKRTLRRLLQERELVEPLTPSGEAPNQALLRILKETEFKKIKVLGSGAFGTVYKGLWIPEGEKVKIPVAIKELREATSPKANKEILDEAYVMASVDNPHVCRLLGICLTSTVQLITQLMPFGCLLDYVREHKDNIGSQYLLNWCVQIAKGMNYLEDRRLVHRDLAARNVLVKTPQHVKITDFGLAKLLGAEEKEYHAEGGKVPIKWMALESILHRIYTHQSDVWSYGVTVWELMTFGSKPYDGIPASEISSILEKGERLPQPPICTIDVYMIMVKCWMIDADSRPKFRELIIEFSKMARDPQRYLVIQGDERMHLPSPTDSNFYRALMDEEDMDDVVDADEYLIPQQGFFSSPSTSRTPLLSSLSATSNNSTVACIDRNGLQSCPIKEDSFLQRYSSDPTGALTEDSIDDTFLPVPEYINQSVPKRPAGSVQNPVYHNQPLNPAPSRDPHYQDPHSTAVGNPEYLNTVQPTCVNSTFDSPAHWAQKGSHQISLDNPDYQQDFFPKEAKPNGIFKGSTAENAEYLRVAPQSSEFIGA

SMILES | IC50 (EGFR WT) | IC50 (ErbB2 V777L; ErbB2 V777L enzyme, ATP at Km (110 μM), 1 h incubation) | IC50 (ErbB2 V777L)
C=CC(=O)N1CCN(c2ccc3ncnc(Nc4cc(C)c(Oc5ccc6c(c5)nnn6C)cc4OC)c3n2)C[C@H]1C [Compound 316, (R)-1-(4-(4-((2-methoxy-5-methyl-4-((1-methyl-1H-benzo[d][1,2,3]triazol-5-yl)oxy)phenyl)amino)pyrido[3,2-d]pyrimidin-6-y1)-2-methylpiperazin-1-yl)prop-2-en-1-one] | 100 to 500 nM | 50 to 100 nM | –
C=CC(=O)N[C@H]1CN(c2ccc3ncnc(Nc4ccc(Oc5ccc6c(c5)nnn6C)c(C)c4)c3n2)CC(F)(F)C1 [Compound 342, (R)-N-(5,5-difluoro-1-(4-((3-methyl-4-((1-methyl-1H-benzo[d][1,2,3]triazol-5-yl)oxy)phenyl)amino)pyrido[3,2-d]pyrimidin-6-yl)piperidin-3-yl)acrylamide] | 500 to 1000 nM | – | 100 to 500 nM
C=CC(=O)N1C[C@@H](N(C)c2ccc3ncnc(Nc4ccc(Oc5ccc6c(c5)nnn6C)c(C)c4)c3n2)C[C@H]1C [Compound 351, 1-((2R,4S)-2-methyl-4-(methyl(4-((3-methyl-4-((1-methyl-H-benzo[d][1,2,3]triazol-5-yl)oxy)phenyl)amino)pyrido[3,2-d]pyrimidin-6-yl)amino)pyrrolidin-1-yl)prop-2-en-1-one] | 500 to 1000 nM | – | 100 to 500 nM
C=CC(=O)N1C2CCCC1CC(c1ccc3ncnc(Nc4ccc(Oc5ccc6c(c5)nnn6C)c(C)c4F)c3n1)C2 (stereo not shown) [Compound 402, 1-(3-(4-((2-fluoro-3-methyl-4-((1-methyl-1H-benzo[d][1,2,3]triazol-5-yl)oxy)phenyl)amino)pyrido[3,2-d]pyrimidin-6-yl)-9-azabicyclo[3.3.1]nonan-9-yl)prop-2-en-1-one trifluoroacetate] | 100 to 500 nM | – | 100 to 500 nM
C=CC(=O)N1CCN(c2ccc3ncnc(Nc4cc(C)c(Oc5ccc6c(c5)nnn6C)cc4F)c3n2)CC1 [Compound 94, 1-(4-(4-((2-fluoro-5-methyl-4-((1-methyl-1H-benzo[d][1,2,3]triazol-5-yl)oxy)phenyl)amino)pyrido[3,2-d]pyrimidin-6-yl)piperazin-1-yl)prop-2-en-1-one] | 100 to 500 nM | – | 50 to 100 nM
Cc1cc(Nc2ncnc3cnc(N4CCN(C(=O)/C=C/CF)CC4)nc23)ccc1Oc1ccc2c(c1)nnn2C [Compound 210, (E)-4-fluoro-1-(4-(8-((3-methyl-4-((1-methyl-1H-benzo[d][1,2,3]triazol-5-yl)oxy)phenyl)amino)pyrimido [5,4-d]pyrimidin-2-yl)piperazin-1-yl)but-2-en-1-one] | 100 to 500 nM | – | 50 to 100 nM
Cc1cc(Nc2ncnc3cnc(N4CCN(C(=O)/C=C/CO)CC4)nc23)ccc1Oc1ccc2c(c1)nnn2C [Compound 57, (E)-4-hydroxy-1-(4-(8-((3-methyl-4-((1-methyl-1H-benzo[d][1,2,3]triazol-5-yl)oxy)phenyl)amino)pyrimido [5,4-d]pyrimidin-2-yl)piperazin-1-yl)but-2-en-1-one] | 100 to 500 nM | – | 100 to 500 nM
C=CC(=O)N1CCN(c2ncc3ncnc(Nc4cc(Cl)c(Oc5ccc6c(c5)nnn6C)cc4F)c3n2)CC1 [Compound 66, 1-(4-(8-((5-chloro-2-fluoro-4-((1-methyl-1H-benzo[d][1,2,3]triazol-5-yl)oxy)phenyl)amino)pyrimido[5,4-d]pyrimidin-2-yl)piperazin-1-yl)prop-2-en-1-one] | 100 to 500 nM | – | 50 to 100 nM
C=C1CCN(C2CCN(c3ncc4ncnc(Nc5ccc(Oc6ccn7ncnc7c6)c(C)c5)c4n3)CC2)C1=O [Compound 240, 1-(1-(8-((4-([1,2,4]triazolo[1,5-a]pyridin-7-yloxy)-3-methylphenyl)amino)pyrimido[5,4-d]pyrimidin-2-yl)piperidin-4-yl)-3-methylenepyrrolidin-2-one] | ≥ 1000 nM | – | 100 to 500 nM
C=C1CCN([C@H]2CCN(c3ncc4ncnc(Nc5ccc(Oc6ccn7ncnc7c6)c(C)c5)c4n3)C2)C1=O [Compound 239, (S)-1′-(8-((4-([1,2,4]triazolo[1,5-a]pyridin-7-yloxy)-3-methylphenyl)amino)pyrimido[5,4-d]pyrimidin-2-yl)-3-methylene-[1,3′-bipyrrolidin]-2-one] | 500 to 1000 nM | – | 50 to 100 nM
C=CC(=O)N1CCCN(c2ccc3ncnc(Nc4cc(C)c(Oc5ccc6c(c5)nnn6C)cc4OC)c3n2)CC1 [Compound 264, 1-(4-(4-((2-methoxy-5-methyl-4-((1-methyl-1H-benzo[d][1,2,3]triazol-5-yl)oxy)phenyl)amino)pyrido[3,2-d]pyrimidin-6-yl)-1,4-diazepan-1-yl)prop-2-en-1-one] | 500 to 1000 nM | – | 500 to 1000 nM
C=CC(=O)NC1(C(F)(F)F)CCN(c2ccc3ncnc(Nc4ccc(Oc5ccc6c(c5)nnn6C)c(C)c4F)c3n2)CC1 [Compound 345, N-(1-(4-((2-fluoro-3-methyl-4-((1-methyl-1H-benzo[d][1,2,3]triazol-5-yl)oxy)phenyl)amino)pyrido[3,2-d]pyrimidin-6-yl)-4-(trifluoromethyl)piperidin-4-yl)acrylamide] | 100 to 500 nM | – | 100 to 500 nM

Second part, the compound after the results:

IC50 (EGFR WT) | IC50 (ErbB2 V777L; ErbB2 V777L enzyme, ATP at Km (110 μM), 1 h incubation) | IC50 (ErbB2 V777L) | SMILES
100 to 500 nM | – | 100 to 500 nM | C=CC(=O)N1CCN(c2ncc3ncnc(Nc4cc(C)c(Oc5ccc6c(c5)nnn6C)cc4OC)c3n2)CC1 [Compound 12, 1-(4-(8-((2-methoxy-5-methyl-4-((1-methyl-1H-benzo[d][1,2,3]triazol-5-yl)oxy)phenyl)amino)pyrimido[5,4-d]pyrimidin-2-yl)piperazin-1-yl)prop-2-en-1-one 2,2,2-trifluoroacetate]
500 to 1000 nM | – | 100 to 500 nM | C=CC(=O)N1CCN(c2ncc3ncnc(Nc4ccc(Oc5ccc6c(c5)nnn6C)c(C)c4)c3n2)C[C@H]1C1CC1 [Compound 196, (R)-1-(2-cyclopropyl-4-(8-((3-methyl-4-((1-methyl-1H-benzo[d][1,2,3]triazol-5-yl)oxy)phenyl)amino)pyrimido[5,4-d]pyrimidin-2-yl)piperazin-1-yl)prop-2-en-1-one]
100 to 500 nM | – | 100 to 500 nM | C=CC(=O)N[C@@H]1C[C@@H](F)CN(c2ccc3ncnc(Nc4ccc(Oc5ccc6c(c5)nnn6C)c(C)c4F)c3n2)C1 [Compound 295, N-((3R,5R)-5-fluoro-1-(4-((2-fluoro-3-methyl-4-((1-methyl-1H-benzo[d][1,2,3]triazol-5-yl)oxy)phenyl)amino)pyrido[3,2-d]pyrimidin-6-yl)piperidin-3-yl)acrylamide]
100 to 500 nM | – | 50 to 100 nM | C=CC(=O)N[C@@H]1CCCN(c2ccc3ncnc(Nc4ccc(Oc5ccc6c(c5)nnn6C)c(C)c4F)c3n2)[C@H]1C (single isomer, unassigned) [Compound 349]
100 to 500 nM | – | 100 to 500 nM | C=CC(=O)N(C)C1CN(c2ncc3ncnc(Nc4ccc(Oc5ccc6c(c5)nnn6C)c(C)c4F)c3n2)C1 [Compound 28, N-(1-(8-((2-fluoro-3-methyl-4-((1-methyl-1H-benzo[d][1,2,3]triazol-5-yl)oxy)phenyl)amino)pyrimido [5,4-d]pyrimidin-2-yl)azetidin-3-yl)-N-methylacrylamide]
100 to 500 nM | – | 50 to 100 nM | C=CC(=O)N1CCN(c2ncc3ncnc(Nc4ccc(Oc5ccc6c(c5)ncn6C(F)F)c(C)c4F)c3n2)C[C@H]1C [Compound 148, (R)-1-(4-(8-((4-((1-(difluoromethyl)-1H-benzo[d]imidazol-5-yl)oxy)-2-fluoro-3-methylphenyl)amino)pyrimido[5,4-d]pyrimidin-2-yl)-2-methylpiperazin-1-yl)prop-2-en-1-one]
500 to 1000 nM | – | 100 to 500 nM | C=CC(=O)NC1CC2(C1)CN(c1ncc3ncnc(Nc4ccc(Oc5ccc6c(c5)nnn6C)c(C)c4)c3n1)C2 [Compound 225, N-(2-(8-((3-methyl-4-((1-methyl-1H-benzo[d][1,2,3]triazol-5-yl)oxy)phenyl)amino)pyrimido[5,4-d]pyrimidin-2-yl)-2-azaspiro[3.3]heptan-6-yl)acrylamide]
100 to 500 nM | – | 50 to 100 nM | C=CC(=O)N[C@@H]1[C@@H]2CC[C@H]1CN(c1ncc3ncnc(Nc4ccc(Oc5ccc6c(c5)nnn6C)c(C)c4)c3n1)C2 [Compound 206, N-((1R,5S,8s)-3-(8-((3-methyl-4-((1-methyl-1H-benzo[d][1,2,3]triazol-5-yl)oxy)phenyl)amino)pyrimido[5,4-d]pyrimidin-2-yl)-3-azabicyclo[3.2.1]octan-8-yl)acrylamide]
< 50 nM | – | 50 to 100 nM | C=CC(=O)N1CC2CC1CN2c1ncc2ncnc(Nc3ccc(Oc4ccc5c(c4)nnn5C)c(C)c3)c2n1 (stereo not shown) [Compound 61, 1-(5-(8-((3-methyl-4-((1-methyl-1H-benzo[d][1,2,3]triazol-5-yl)oxy)phenyl)amino)pyrimido[5,4-d]pyrimidin-2-yl)-2,5-diazabicyclo[2.2.1]heptan-2-yl)prop-2-en-1-one]
100 to 500 nM | – | 50 to 100 nM | C=CC(=O)N1C[C@H](C)N(c2ncc3ncnc(Nc4ccc(Oc5ccc6c(c5)nnn6C)c(C)c4)c3n2)C[C@@H]1C [Compound 187, 1-((2S,5S)-2,5-dimethyl-4-(8-((3-methyl-4-((1-methyl-1H-benzo[d][1,2,3]triazol-5-yl)oxy)phenyl)amino)pyrimido[5,4-d]pyrimidin-2-yl)piperazin-1-yl)prop-2-en-1-one]
100 to 500 nM | – | 100 to 500 nM | C=CC(=O)N1CCN(c2ccc3ncnc(Nc4ccc(Oc5ccc6c(c5)nnn6C)c(C)c4F)c3n2)C[C@H]1CC [Compound 258, (R)-1-(2-ethyl-4-(4-((2-fluoro-3-methyl-4-((1-methyl-1H-benzo[d][1,2,3]triazol-5-yl)oxy)phenyl)amino)pyrido[3,2-d]pyrimidin-6-yl)piperazin-1-yl)prop-2-en-1-one]
